A word on the MIC: it is the smallest concentration in the dilution series that meets the test's criterion for growth inhibition. Read a high MIC as weaker potency. Broadly, the MBC is the lowest tested concentration that kills the bacteria rather than only halting them. A low value points to more potent killing.

Converted amounts (≈) assume the structure as drawn.

From ChEMBL document CHEMBL3045736, “Cobalt mediated ring contraction reaction of lapachol and initial antibacterial evaluation of naphthoquinones derived from lapachol” (2012) come the findings set out here.

Holding throughout (assay type): functional
One test concerns Staphylococcus aureus. The test can be described thus: Antibacterial activity against Staphylococcus aureus after 24 hr by p-iodonitrotetrazolium assay.
Another test deals with Bacillus cereus. The test can be described thus: Antibacterial activity against Bacillus cereus after 24 hr by p-iodonitrotetrazolium assay.
For a further test, the system named is Escherichia coli. The test can be described thus: Antibacterial activity against Escherichia coli after 24 hr by p-iodonitrotetrazolium assay.
For test [1], the system named is Mycobacterium tuberculosis. The test can be described thus: Antimycobacterial activity against Mycobacterium tuberculosis by Bactec TB-460 assay.

`CC(=O)OC=CC1=C(O)C(=O)c2ccccc2C1=O`: the minimal inhibitory concentration (MIC) with Staphylococcus aureus, against Bacillus cereus and with Escherichia coli was above 78.1 µg/mL each time.
`CC(C)=CCC1(O)C(=O)c2ccccc2C1=O`: the MIC against Staphylococcus aureus was 240 µM; against Bacillus cereus it was above 78.1 µg/mL; in test [1] it was 120 µM (≈ 27.6 µg/mL); with Escherichia coli, above 78.1 µg/mL. This compound also displayed an MBC in test [1] of 240 µM (≈ 55.2 µg/mL).
Take `CC(C)(O[N+](=O)[O-])C1CC2=C(O1)C(=O)c1ccccc1C2=O` (stereo not drawn): the MIC against Staphylococcus aureus is 272 µM; in the test with Bacillus cereus, above 78.1 µg/mL; in test [1] it was 34 µM (≈ 10.3 µg/mL); against Escherichia coli it was above 78.1 µg/mL. This compound yielded an MBC in test [1] of 136 µM (≈ 41.3 µg/mL).
As to `C=C(C)c1cc2c(o1)C(=O)c1ccccc1C2=O`, the MIC with Staphylococcus aureus was 328 µM; against Bacillus cereus it was above 78.1 µg/mL; in test [1], 41 µM (≈ 9.77 µg/mL); with Escherichia coli it was 328 µM. Moreover, the MBC in test [1] came out at 164 µM (≈ 39.1 µg/mL).
As to `O=CCC1=C(O)C(=O)c2ccccc2C1=O`, the MIC against Staphylococcus aureus was above 78.1 µg/mL; in the test with Bacillus cereus, above 78.1 µg/mL; in test [1] it was 362 µM (≈ 78.2 µg/mL); against Escherichia coli, above 78.1 µg/mL. For the same compound, the MBC in test [1] stood at 723 µM (≈ 156 µg/mL).
For the compound `C=C(C)C1CC2=C(O1)C(=O)c1ccccc1C2=O` (stereo not drawn) [DEHYDROISO-ALPHA-LAPACHONE], the MIC in the test with Staphylococcus aureus was 326 µM; against Bacillus cereus, above 78.1 µg/mL; in test [1], 40.7 µM (≈ 9.77 µg/mL); in the test with Escherichia coli, above 78.1 µg/mL. Besides, the MBC in test [1] is 81.4 µM (≈ 19.6 µg/mL).
In the case of `NNC(=O)c1ccncc1` [ISONIAZID], in test [1], the MBC turned out to be 1.75 µM (≈ 0.24 µg/mL) and the lowest concentration to inhibit growth (MIC) was 0.88 µM (≈ 0.121 µg/mL).
On to `CC(C)=CCC1=C(O)C(=O)c2ccccc2C1=O` [LAPACHOL], for which the MIC against Staphylococcus aureus is above 78.1 µg/mL; in the test with Bacillus cereus, above 78.1 µg/mL; in test [1], 161 µM (≈ 39.1 µg/mL); in the test on Escherichia coli, above 78.1 µg/mL. The compound also gave an MBC in test [1] of 646 µM (≈ 156 µg/mL).
Turning to `CC1(C)CCC2=C(O1)c1ccccc1C(=O)C2=O` [LAPACHONE], the MIC against Staphylococcus aureus worked out at 161 µM; in the test with Bacillus cereus, 161 µM; in test [1], 20.2 µM (≈ 4.89 µg/mL); against Escherichia coli, 161 µM. Also, the MBC in test [1] is 80.7 µM (≈ 19.6 µg/mL).
Take `CC(=O)c1cc2c(o1)C(=O)c1ccccc1C2=O` [NAPABUCASIN]: the MIC in the test on Staphylococcus aureus was 326 µM; against Bacillus cereus, above 78.1 µg/mL; in test [1] it was 40.7 µM (≈ 9.77 µg/mL); in the test on Escherichia coli it was above 78.1 µg/mL. Moreover, in test [1], the MBC was found to be 163 µM (≈ 39.1 µg/mL).
With GENTAMICIN, the MIC turned out to be 7.2 µM with Staphylococcus aureus, 3.6 µM with Bacillus cereus and 3.6 µM against Escherichia coli.
